Results: patent publication US20050209157A1, “Short bioactive peptides and methods for their use” (priority 2001, published 2005)
In brackets after ≈: the same amount, converted by molar mass. No end group written: not given here.

Key:
[1] = test system: Candida albicans ATCC 10231; assay: Antimicrobial assay I, modified protocol (tryptic soy broth), MFC; conditions: minimum fungicidal concentration, Table 4
[2] = test system: Escherichia coli ATCC 25922; assay: Antimicrobial assay I, modified protocol (tryptic soy broth), MBC; conditions: minimum bactericidal concentration, Table 4
[3] = test system: Stapholococcus aureus ATCC 25923; assay: as above; conditions: minimum bactericidal concentration, Table 4
[4] = test system: Pseudomonas aeruginosa ATCC 27853; assay: as above; conditions: minimum bactericidal concentration, Table 4

| Molecule | MFC Candida A.10231 [1] | MBC E. coli A.25922 [2] | MBC S. aur A.25923 [3] | MBC P. aerug A.27853 [4] |
| --- | --- | --- | --- | --- |
| CC(C)C[C@H](NC(=O)[C@H](C)NC(=O)[C@H](CCCCN)NC(=O)[C@H](C)NC(=O)[C@H](CC(C)C)NC(=O)[C@H](CCCCN)NC(=O)[C@H](C)NC(=O)[C@H](CC(C)C)NC(=O)[C@H](CCCCN)NC(=O)[C@H](C)NC(=O)[C@H](CC(C)C)NC(=O)[C@H](CCCCN)NC(=O)[C@H](CCCCN)NC(=O)[C@H](C)NC(=O)[C@H](CC(C)C)NC(=O)[C@@H](N)CCCCN)C(=O)O [compound 160] | >250 µg/mL | >250 µg/mL | >250 µg/mL | >250 µg/mL |
| CC(C)C[C@H](NC(=O)[C@H](CCCCN)NC(=O)[C@H](CCCCN)NC(=O)[C@H](Cc1c[nH]c2ccccc12)NC(=O)[C@@H](N)CCCCN)C(=O)N[C@@H](C)C(=O)N[C@@H](CCCCN)C(=O)N[C@@H](CCCCN)C(=O)N[C@@H](Cc1c[nH]c2ccccc12)C(N)=O [compound 161] | 25 µg/mL (≈ 20.6 µM) | 150 µg/mL (≈ 124 µM) | >250 µg/mL | >250 µg/mL |
| CC(C)C[C@H](NC(=O)[C@H](CCCCN)NC(=O)[C@H](CCCCN)NC(=O)[C@H](Cc1c[nH]c2ccccc12)NC(=O)[C@@H](N)CCCCN)C(=O)N[C@@H](C)C(=O)N[C@@H](CCCCN)C(=O)N[C@@H](CCCCN)C(=O)N[C@@H](Cc1c[nH]c2ccccc12)C(=O)O [compound 162] | 100 µg/mL (≈ 82.3 µM) | 50 µg/mL (≈ 41.1 µM) | >250 µg/mL | >250 µg/mL |
| CC(C)C[C@H](NC(=O)[C@H](CCCCN)NC(=O)[C@H](CC(C)C)NC(=O)[C@H](Cc1c[nH]c2ccccc12)NC(=O)[C@H](CCCCN)NC(=O)[C@H](CCCCN)NC(=O)[C@H](C)NC(=O)[C@H](Cc1c[nH]c2ccccc12)NC(=O)[C@H](CCCCN)NC(=O)[C@H](CCCCN)NC(=O)[C@H](Cc1c[nH]c2ccccc12)NC(=O)[C@H](CC(C)C)NC(=O)[C@@H](N)CCCCN)C(=O)N[C@@H](Cc1c[nH]c2ccccc12)C(=O)N[C@@H](CCCCN)C(=O)N[C@@H](C)C(=O)N[C@@H](Cc1c[nH]c2ccccc12)C(N)=O [compound 163] | 25 µg/mL (≈ 10.7 µM) | 25 µg/mL (≈ 10.7 µM) | 25 µg/mL (≈ 10.7 µM) | 50 µg/mL (≈ 21.5 µM) |
| CC(C)C[C@H](NC(=O)[C@H](CCCCN)NC(=O)[C@H](CC(C)C)NC(=O)[C@H](Cc1c[nH]c2ccccc12)NC(=O)[C@H](CCCCN)NC(=O)[C@H](CCCCN)NC(=O)[C@H](C)NC(=O)[C@H](Cc1c[nH]c2ccccc12)NC(=O)[C@H](CCCCN)NC(=O)[C@H](CCCCN)NC(=O)[C@H](Cc1c[nH]c2ccccc12)NC(=O)[C@H](CC(C)C)NC(=O)[C@@H](N)CCCCN)C(=O)N[C@@H](Cc1c[nH]c2ccccc12)C(=O)N[C@@H](CCCCN)C(=O)N[C@@H](C)C(=O)O [compound 164] | 25 µg/mL (≈ 11.7 µM) | 25 µg/mL (≈ 11.7 µM) | 25 µg/mL (≈ 11.7 µM) | 25 µg/mL (≈ 11.7 µM) |
| CC(C)C[C@H](NC(=O)[C@H](C)NC(=O)[C@H](CCCCN)NC(=O)[C@H](CCCCN)NC(=O)[C@H](CC(C)C)NC(=O)[C@H](C)NC(=O)[C@H](CCCCN)NC(=O)[C@H](C)NC(=O)[C@H](CC(C)C)NC(=O)[C@H](C)NC(=O)[C@@H](N)Cc1ccccc1)C(N)=O [compound 166] | >250 µg/mL | >250 µg/mL | >250 µg/mL | >250 µg/mL |
| CC(C)C[C@H](NC(=O)[C@H](CCCCN)NC(=O)[C@H](CC(C)C)NC(=O)[C@H](CC(C)C)NC(=O)[C@H](C)NC(=O)[C@@H](N)Cc1ccccc1)C(N)=O [compound 168] | 150 µg/mL (≈ 213 µM) | 75 µg/mL (≈ 107 µM) | >250 µg/mL | 100 µg/mL (≈ 142 µM) |
| CC(C)C[C@H](NC(=O)[C@H](C)NC(=O)[C@@H](N)Cc1ccccc1)C(=O)N[C@@H](C)C(=O)N[C@@H](CC(C)C)C(=O)N[C@@H](CCCCN)C(=O)N[C@@H](C)C(=O)N[C@@H](CC(C)C)C(=O)N[C@@H](CCCCN)C(=O)N[C@@H](CCCCN)C(N)=O [compound 169] | 75 µg/mL (≈ 68.1 µM) | 200 µg/mL (≈ 182 µM) | >250 µg/mL | >250 µg/mL |
| CC(C)C[C@H](NC(=O)[C@H](C)NC(=O)[C@H](CCCCN)NC(=O)[C@H](CCCCN)NC(=O)[C@H](CC(C)C)NC(=O)[C@H](C)NC(=O)[C@H](CCCCN)NC(=O)[C@H](CC(C)C)NC(=O)[C@H](CC(C)C)NC(=O)[C@H](C)NC(=O)[C@@H](N)Cc1ccccc1)C(N)=O [compound 171] | 50 µg/mL (≈ 41.2 µM) | 75 µg/mL (≈ 61.7 µM) | >250 µg/mL | 100 µg/mL (≈ 82.3 µM) |
| CC(C)C[C@H](NC(=O)[C@H](CCCCN)NC(=O)[C@H](CCCCN)NC(=O)[C@H](Cc1c[nH]c2ccccc12)NC(=O)[C@@H](N)CCCCN)C(N)=O [compound 173] | 150 µg/mL (≈ 214 µM) | >250 µg/mL | >250 µg/mL | >250 µg/mL |
| FAFAKIIAKIAKKII-NH2 [compound 140] | INACT | INACT | INACT | INACT |
| FAFGKGIGKIGKKGL-NH2 [compound 138] | INACT | INACT | INACT | INACT |
| FAFGKGIGKVGKKLL-NH2 [compound 133] | INACT | INACT | INACT | INACT |
| FAKAIAKIAFGKGIGKVGKKLL-NH2 [compound 134] | INACT | INACT | INACT | INACT |
| FAKGVGKVGKKAL-NH2 [compound 137] | INACT | INACT | INACT | INACT |
| FAKIIAKIAKIAKKIL-NH2 [compound 139] | INACT | INACT | INACT | INACT |
| FAKIIAKIAKKI-NH2 [compound 143] | INACT | INACT | INACT | INACT |
